Measurements reported in the NIST ThermoML archive (doi:10.1021/acs.jced.9b00243).
± gives the expanded uncertainty stated by the source.

Experiments:
[1] = Molar enthalpy of transition or fusion; details: Crystal; DSC
[2] = Crystal; DSC

## N#CCc1ccccc1[N+](=O)[O-] [o-nitrophenylacetonitrile]
[1]
  Molar enthalpy of transition or fusion: 3.4 ± 0.22 kcal/mol
[2]
  Triple point temperature: 351.59 ± 1.2 K
